Reference: paper PMC5360176 (Journal of clinical psychopharmacology, 2016)
Where “and” joins values, the source holds several entries; their conditions need not be identical. Identical values can stand only once. Like-named read-outs stand apart in the source and are kept apart here.

Experiments:
[1] = oxycodone 30 mg p.o.
[2] = human, in vivo
[3] = human, in vivo; remark: listed apart in the source
[4] = human, in vivo; remark: listed apart in the source
[5] = cited from earlier work
clinical [6] = details: human, in vivo
clinical [7] = details: human, in vivo; remark: listed apart in the source
clinical [8] = details: human, in vivo; remark: listed apart in the source
CAII = details: high affinity RBC isoform; cited from earlier work
CAI = details: low affinity RBC isoform; cited from earlier work
[9] = noroxycodone in plasma after oxycodone + ACZ, Day 5
[10] = noroxycodone in plasma after oxycodone alone, Day 1
[11] = noroxycodone in plasma after oxycodone alone, Day 8
[12] = therapeutic dose of ~400 mg ACZ/day

## COc1ccc2c3c1O[C@H]1C(=O)CC[C@@]4(O)[C@@H](C2)NCC[C@]314 [Noroxycodone]
[9]
  Area under Curve: 218 ng·h/mL
  Cmax: 30 ng/mL
  Tmax: 0.9 h
  half-life: 5.0 h
[10]
  Cmax: 34.9 ng/mL
  Tmax: 0.9 h
  half-life: 4.3 h
[11]
  Area under Curve: 213 ng·h/mL
  Cmax: 30.2 ng/mL
  Tmax: 0.9 h
  half-life: 4.7 h
Noroxycodone metabolite in plasma after oxycodone alone, Day 1, one-compartment
  Area under Curve: 224 ng·h/mL
Presence or absence of ACZ
  Effect of ACZ on noroxycodone PK parameters: no differences in any of the PK parameters

## COc1ccc2c3c1O[C@H]1C(=O)CC[C@@]4(O)[C@@H](C2)N(C)CC[C@]314 [Oxycodone]
[1]
  Opioid Agonist Checklist scores as rated by subjects and observers: increased scores on an Opioid Agonist Checklist
  Pupil diameter: sustained pupil miosis
  Ratings on a visual analog scale of drug liking: increased ratings on a visual analog scale of drug liking
human, in vivo, 30 mg
  Tmax: 1 h
human, in vivo, 30 mg, Cmax, oxycodone alone, Day 1, plasma
  Cmax: 61.6 ng/mL
human, in vivo, 30 mg, Cmax, oxycodone alone, Day 8, plasma
  Cmax: 68.5 ng/mL
human, in vivo, 30 mg, α-Half-life, oxycodone alone, Day 8, plasma
  half-life: 0.14 ± 0.06 h
human, in vivo, 30 mg, β-Half-life, oxycodone alone, Day 1, plasma
  half-life: 3.9 h
human, in vivo, 30 mg, β-Half-life, oxycodone alone, Day 8, plasma
  half-life: 4.1 h
human, in vivo, Cmax, oxycodone + ACZ, Day 5, plasma
  Cmax: 71.4 ng/mL
human, in vivo, α-Half-life, oxycodone + ACZ 15 mg, Day 5, plasma
  half-life: 0.2 h
human, in vivo, β-Half-life, oxycodone + ACZ, Day 5, plasma
  half-life: 4.1 h
Oxycodone + ACZ, Day 5, plasma
  Area under Curve: 341.3 ng·h/mL
Oxycodone alone, Day 1, plasma
  Area under Curve: 281.1 ^♦ h*ng/ml
Oxycodone alone, Day 8, plasma
  Area under Curve: 318.6 ng·h/mL
  Tmax: 1.0 h
  α-Half-life: 0.1 ^♦ h
p<0.05, not different from Day 8
  Difference in oxycodone AUC (exposure), Day 5 with ACZ vs Day 1 alone: 20% and 20 ± 11%

## CC(=O)Nc1nnc(S(N)(=O)=O)s1 [ACZ, Acetazolamide]
[2]
  Cmax: 1285 ng/mL
  Plasma Area under Curve: 5568 ng/mlblood*h
  Time of plasma maximum concentration (Cmax) after administration: ≤ 1 h
  Tmax: 0.5 h
[3]
  Blood Area under Curve: 52130 ng/ml*h
  RBCs (minus residuum) Area under Curve: 49555 ng/mlblood*h
  RBCs (total) Area under Curve: 133107 ng/mlblood*h
[4]
  Urinary excretion rate Cmax: 669 µg/h
[4]; 48 h
  Slowest individual urinary elimination rate (low outlier): 87 µg/h
[4]; 96 h
  Fastest individual urinary elimination rate (high outlier): 33 µg/h
[5]; therapeutic (~400 mg / day) doses
  RBC concentration with which side effects correlate: exceed 90 µM
[5]; [12]
  Mean RBC concentration: 121 ± 46 µM
  Mean plasma concentration: 51 ± 40 µM
Clinical [6]; Cmax
  Cmax: 1310 ng/mL
Clinical [6]; Plasma Cmax
  Cmax: 660 ng/mL
Clinical [6]; Plasma Tmax
  Tmax: 1 h
Clinical [6]; Tmax
  Tmax: 1 h
Clinical [7]; Blood Cmax
  Cmax: 776 ng/mL
Clinical [7]; Blood Tmax
  Tmax: 4.8 h
Clinical [7]; RBCs (minus residuum) Cmax
  Cmax: 636 ng/mL
Clinical [7]; RBCs (minus residuum) Tmax
  Tmax: 7.5 h
Clinical [7]; RBCs (total) Cmax
  Cmax: 1790 ng/mL
Clinical [7]; RBCtotal Cmax
  Cmax: 17 ± 1 µM
Clinical [8]
  Tmax: 7.2 h
CAII
  Maximum ACZ binding capacity: 17 µM
CAI
  Max binding capacity: 155 µM
